Reference: publication PMC10537087, “Evaluating Known Zika Virus NS2B-NS3 Protease Inhibitor Scaffolds via In Silico Screening and Biochemical Assays” (Pharmaceuticals, 2023)
Read-outs that look alike come from different tables or passages of the source.

Legend:
ZIKV NS2B-NS3pro [1] = target: T1, ZIKV NS2B-NS3pro (Zika virus, UniProt A0A024B7W1, C1582S/C1645S/R1467A/R1531G); assay: ZIKV NS2B-NS3pro inhibitory assay with fluorogenic substrate Bz-Nle-Lys-Lys-Arg-AMC; assay type: biochemical; settings: for % ZIKV NS2B/NS3pro Inhibition [Enzyme] = 0.2 nM / % ZIKV NS2B/NS3pro Inhibition [Enzyme] = 2 nM: CHAPS 1 mM; for % ZIKV NS2B/NS3pro Inhibition (100 µM) 0.001% Triton: 0.001% Triton X-100, no Tween-20; for % ZIKV NS2B/NS3pro Inhibition (100 µM) 0.01% Triton: 0.01% Triton X-100, no Tween-20; for % ZIKV NS2B/NS3pro Inhibition (100 µM) BSA: 10 min pre-incubation with BSA 1 mg/mL before enzyme; for % ZIKV NS2B/NS3pro Inhibition (100 µM) Without Preincubation: no preincubation; for Hill Slope Replica 1 / Hill Slope Replica 2: from dose-response curve
[2] = Cytotoxicity MTT assay (CC50); settings: African green monkey, Vero (ATCC CCL-81) cells
Procedure: (§1) The Vero (ATCC® CCL-81™) cell line was used for the cytotoxicity assays and antiviral activity evaluation against ZIKV. Cells were cultured in Eagle’s minimum essential media (MEM) (Cultilab, Campinas, Brazil). The media was supplemented with 5% fetal bovine serum (FBS) (Cultilab, Brazil), in addition to 100 IU/mL penicillin (Cellofarm, Rio De Janeiro, Brazil), 100 μg/mL streptomycin (Merck, Darmstadt, Germany), and 0.25 μg/mL amphotericin B (Cultilab, Brazil).
(§2) Cells were seeded in 96-well microplates (4.0 × 10^4 cells per well) and incubated at 37 °C and 5% CO2 for 24 h. Then, 200 µL of MEM with 1% FBS containing a serial dilution of the compounds (100 to 12.5 µM) was added. As vehicle control, a serial dilution of DMSO was used. After 72 h of incubation under the same conditions, 100 μL of 3-(4,5-dimethylthiazol-2-yl)-2,5-diphenyltetrazolium bromide (MTT; ThermoFischer Scientific, Waltham, MA, USA) [76] diluted in MEM (0.5 mg/mL) was added to each well and incubated for 3 h. The media was removed, and 100 μL of DMSO was added to each well to solubilize formazan crystals and shaken for 20 min. The absorbance was read at 570 nm using a spectrophotometer (VersaMax, Molecular Devices, San Jose, CA, USA). The percentages of inhibition of cell viability were calculated as the ratio between the absorbance of the compound-treated cells and cells with only the vehicle. […] Linear regression (LR) was used for the analysis, considering results with r^2 > 0.9. All conditions were tested in triplicate and one independent assay (n = 3 data points).

[3] = tested on: Vero (ATCC CCL-81) cell line; assay: Cytotoxicity MTT assay (CC50); settings: Vero cells
Procedure: as §1, §2

ZIKV NS2B-NS3pro [4] = target: T1, ZIKV NS2B-NS3pro; settings: cited from earlier work; for cause of inhibition after resynthesis: parallel study, ref [54]; for mode of inhibition: ref [33]
[5] = compound 100 µM, 10 min preincubation
[6] = compound 100 µM, 10 min preincubation with enzyme, 0.005% Tween-20, enzyme 0.2 nM
[7] = compound 100 µM, 0.005% Tween-20

Row | Compound | % ZIKV NS2B/NS3pro Inhibition (100 µM) 0.001% Triton (ZIKV NS2B-NS3pro [1]; [5]) | % ZIKV NS2B/NS3pro Inhibition (100 µM) 0.01% Triton (ZIKV NS2B-NS3pro [1]; [5]) | % ZIKV NS2B/NS3pro Inhibition (100 µM) BSA (ZIKV NS2B-NS3pro [1]; compound 100 µM) | % ZIKV NS2B/NS3pro Inhibition (100 µM) With Preincubation (ZIKV NS2B-NS3pro [1]; [6]) | % ZIKV NS2B/NS3pro Inhibition (100 µM) Without Preincubation (ZIKV NS2B-NS3pro [1]; [7]) | Hill Slope Replica 1 (ZIKV NS2B-NS3pro [1]) | Hill Slope Replica 2 (ZIKV NS2B-NS3pro [1]) | CC50 at 72 h [2] | Cell viability as percentage of cell control (mean absorbance / CELL) ([3]; compound 12.5 µM) | Cell viability as percentage of cell control (mean absorbance / CELL) ([3]; compound 25 µM) | Cell viability as percentage of cell control (mean absorbance / CELL) ([3]; compound 50 µM) | Cell viability as percentage of cell control (mean absorbance / CELL) ([3]; compound 100 µM) | cause of inhibition after resynthesis (ZIKV NS2B-NS3pro [4]) | mode of inhibition (ZIKV NS2B-NS3pro [4]) | further results
1 | Cc1ccc(S(=O)(=O)Nc2ccccc2C(=O)Nc2nc3ccccc3[nH]2)cc1 [Compound 7] | 88 ± 5% | 12 ± 17% | 89 ± 7% | 100 ± 0% | 90 ± 8% | 2.014 | 1.056 | 32.8 ± 1.55 µM | 64.4267 | 53.8262 | 38.9416 | 40.3696 |  |  | % ZIKV NS2B/NS3pro Inhibition [Enzyme] = 0.2 nM (ZIKV NS2B-NS3pro [1]; compound 25 µM (close to IC50), enzyme 0.2 nM): 87 ± 0.04%; % ZIKV NS2B/NS3pro Inhibition [Enzyme] = 2 nM (ZIKV NS2B-NS3pro [1]; compound 25 µM (close to IC50)): 27 ± 6%
2 | COc1cccc2sc(NC(=O)c3ccccc3CS(=O)(=O)c3ccccc3)nc12 [Compound 8] |  |  |  |  |  |  |  | 23.6 ± 1 µM | 57.338 | 54.3981 | 21.2269 | 17.0602 |  |  | % ZIKV NS2B/NS3pro Inhibition (100 µM) Without Preincubation (ZIKV NS2B-NS3pro [1]; compound at 10 µM (footnote a), 0.005% Tween-20): 15 ± 11%; % ZIKV NS2B/NS3pro Inhibition (100 µM) With Preincubation (ZIKV NS2B-NS3pro [1]; compound at 10 µM (footnote a, solubility limit), 10 min preincubation, 0.005% Tween-20, enzyme 0.2 nM): 8 ± 8%
3 | COc1cccc2nc(C(=O)c3ccccc3NS(=O)(=O)c3ccc(F)c(C)c3)[nH]c12 [Compound 12] | 90 ± 5% | 5 ± 7% | 87 ± 18% | 100 ± 0% | 91 ± 9% | 1.517 | 1.742 | < 12.5 µM | 28.1944 | 14.2593 | 9.861 | 10 |  |  | IC50 (ZIKV NS2B-NS3pro [1]; 0.005% Tween-20, enzyme 0.2 nM, substrate 44 µM, read-out: ZIKV NS2B/NS3pro IC50): 5 ± 1 µM; % ZIKV NS2B/NS3pro Inhibition [Enzyme] = 0.2 nM (ZIKV NS2B-NS3pro [1]; compound 10 µM (close to IC50), enzyme 0.2 nM): 94 ± 0.06%; % ZIKV NS2B/NS3pro Inhibition [Enzyme] = 2 nM (ZIKV NS2B-NS3pro [1]; compound 10 µM (close to IC50)): 30 ± 10%; IC50 (ZIKV NS2B-NS3pro [1]; one value per independent assay (two curves per compound), read-out: IC50 of the individual curves for NS2B-NS3pro inhibitors (Figure 3)): 6 µM
4 | COc1ccc(S(=O)(=O)Nc2ccccc2C(=O)Nc2nc3ccccc3s2)cc1 [LEE-2] |  |  |  |  |  |  |  |  |  |  |  |  | due to colloidal aggregation | competitive inhibitors | 
5 | COc1ccc(Cl)c2sc(NC(=O)c3ccccc3NS(=O)(=O)c3ccc(C)cc3)nc12 [LEE-3] |  |  |  |  |  |  |  |  |  |  |  |  | due to colloidal aggregation | competitive inhibitors | 
